Reference: US11780845B2 (Relay Therapeutics, Inc., priority 2019, dated 2023)

How the values were obtained:
[1] = biological target: FGFR2 (Homo sapiens (Human), UniProt P21802); assay: Biochemical FGFR2 Caliper assay
[2] = system: SNU-16; assay: Cell SNU-16 assay; type: cell-based; conditions: Homo sapiens, SNU-16, SNU-16 cells

FGFR2, sequence (P21802 22-821): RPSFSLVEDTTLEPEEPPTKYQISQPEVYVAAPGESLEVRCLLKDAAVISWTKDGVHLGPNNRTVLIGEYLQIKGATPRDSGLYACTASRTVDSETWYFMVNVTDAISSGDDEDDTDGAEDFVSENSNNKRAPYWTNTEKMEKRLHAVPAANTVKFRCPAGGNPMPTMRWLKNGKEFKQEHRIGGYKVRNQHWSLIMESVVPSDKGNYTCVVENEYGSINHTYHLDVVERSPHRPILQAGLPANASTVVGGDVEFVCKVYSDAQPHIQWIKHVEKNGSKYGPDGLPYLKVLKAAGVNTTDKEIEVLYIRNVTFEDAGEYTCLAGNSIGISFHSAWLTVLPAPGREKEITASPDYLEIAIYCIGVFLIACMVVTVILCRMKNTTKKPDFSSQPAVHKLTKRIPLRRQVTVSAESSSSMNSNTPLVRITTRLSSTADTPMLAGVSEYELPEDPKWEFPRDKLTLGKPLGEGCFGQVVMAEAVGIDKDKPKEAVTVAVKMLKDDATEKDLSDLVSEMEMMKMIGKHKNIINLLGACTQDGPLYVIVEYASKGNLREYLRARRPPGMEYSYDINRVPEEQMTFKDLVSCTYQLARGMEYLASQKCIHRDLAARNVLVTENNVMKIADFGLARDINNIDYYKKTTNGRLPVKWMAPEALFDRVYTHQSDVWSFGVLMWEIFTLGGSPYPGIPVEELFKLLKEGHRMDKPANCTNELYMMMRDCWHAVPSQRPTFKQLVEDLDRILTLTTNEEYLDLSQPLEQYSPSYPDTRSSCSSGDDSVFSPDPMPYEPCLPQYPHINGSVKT

Structure (SMILES)	IC50 [1]	IC50 [2]
C=C(C)C(=O)Nc1ccc(-c2c(C3=CC[C@@H](C(=O)N4CC[C@H]5C[C@H]54)CC3)c3c(N)ncnc3n2C)cc1 (single isomer, unassigned) [Example 1039]	1000 to 100000 nM	1000 to 100000 nM
CN(C)C/C=C/C(=O)Nc1ccc(-c2c(C3=CC[C@H](C(=O)N4CCCC4)CC3)c3c(N)ncnc3n2C)cc1 (single isomer, unassigned) [Example 1042]	< 100 nM	≤ 100 nM
C=C(C)C(=O)Nc1ccc(-c2c(C3=CC[C@H](C(=O)N4CC[C@H]5C[C@H]54)CC3)c3c(N)ncnc3n2C)cc1 (single isomer, unassigned) [Example 1043]	< 100 nM	≤ 100 nM
C=CC(=O)Nc1ccc(-c2c(C3=CC[C@@H](C(=O)N4CCCC4)CC3)c3c(N)ncnc3n2C)c(C)c1 (single isomer, unassigned) [Example 1102]	< 100 nM	≤ 100 nM
C=CC(=O)Nc1ccc(-c2c(C3=CC[C@@H](C(=O)N4CCCC4)CC3)c3c(C)ncnc3n2C)c(C)c1 (single isomer, unassigned) [Example 1106]	< 100 nM	≤ 100 nM
C=CC(=O)Nc1ccc(-c2c(C3=CC[C@H](C(=O)N4CCCC4)CC3)c3c(C)ncnc3n2C)cc1 (single isomer, unassigned) [Example 1107]	< 100 nM	≤ 100 nM
C=C1CCN(c2ccc(-c3c(C4=CC[C@@H](C(=O)N5CCCC5)CC4)c4c(N)ncnc4n3C)cc2)C1=O (single isomer, unassigned) [Example 1134]	250 to 1000 nM	100 to 250 nM
C=C1CCN(c2ccc(-c3c(C4=CC[C@H](C(=O)N5CCCC5)CC4)c4c(N)ncnc4n3C)cc2)C1=O (single isomer, unassigned) [Example 1137]	250 to 1000 nM	100 to 250 nM
C=C1CCN(c2ccc(-c3c(C4=CC[C@@H](C(=O)N5CCCC5)CC4)c4c(C)ncnc4n3C)c(Cl)c2)C1=O (single isomer, unassigned) [Example 1140]	< 100 nM	≤ 100 nM
C=C1CCN(c2ccc(-c3c(C4=CC[C@H](C(=O)N5CCCC5)CC4)c4c(C)ncnc4n3C)c(Cl)c2)C1=O (single isomer, unassigned) [Example 1141]	< 100 nM	≤ 100 nM
C#Cc1cc(C)c(-c2c(C3=CC[C@@H](C(=O)N4CCCC4)CC3)c3c(N)ncnc3n2C)cn1 (single isomer, unassigned) [Example 1142]	< 100 nM	≤ 100 nM
C#Cc1ncc(-c2c(C3=CC[C@@H](C(=O)N4CCCC4)CC3)c3c(C)ncnc3n2C)c(C)n1 (single isomer, unassigned) [Example 1166]	< 100 nM	≤ 100 nM
C#Cc1ncc(-c2c(C3=CC[C@H](C(=O)N4CCCC4)CC3)c3c(C)ncnc3n2C)c(C)n1 (single isomer, unassigned) [Example 1169]	< 100 nM	≤ 100 nM
C#Cc1cc(C)c(-c2c(C3=CC[C@@H](C(=O)N4CCCC4)CC3)c3c(C)ncnc3n2C)cn1 (single isomer, unassigned) [Example 1199]	< 100 nM	≤ 100 nM
C#Cc1cc(C)c(-c2c(C3=CC[C@H](C(=O)N4CCCC4)CC3)c3c(C)ncnc3n2C)cn1 (single isomer, unassigned) [Example 1201]	< 100 nM	≤ 100 nM
C#Cc1ccc(-c2c(C3=CC[C@H](C(=O)N4CCC[C@H]4COC)CC3)c3c(N)ncnc3n2C)c(C)n1 (single isomer, unassigned) [Example 1204]	< 100 nM	≤ 100 nM
C#Cc1cc(C)c(-c2c(C3=CC[C@H](C(=O)N4CCC[C@H]4COC)CC3)c3c(N)ncnc3n2C)cn1 (single isomer, unassigned) [Example 1205]	250 to 1000 nM	250 to 1000 nM
C#Cc1ccc(-c2c(C3=CC[C@H](C(=O)N4CCCC4)CC3)c3cncnc3n2C)c(C)n1 (single isomer, unassigned) [Example 1207]	1000 to 100000 nM	1000 to 100000 nM
C#Cc1ccc(-c2c(C3=CC[C@@H](C(=O)N4CCCC4)CC3)c3cncnc3n2C)c(C)n1 (single isomer, unassigned) [Example 1208]	1000 to 100000 nM	250 to 1000 nM
C#Cc1cc(C)c(-c2c(C3=CC[C@@H](C(=O)N4CCC[C@@H]4C)CC3)c3c(N)ncnc3n2C)cn1 (single isomer, unassigned) [Example 1210]	< 100 nM	≤ 100 nM
C#Cc1ccc(-c2c(C3=CC[C@@H](C(=O)N4CCC[C@H]4COC)CC3)c3c(N)ncnc3n2C)c(C)n1 (single isomer, unassigned) [Example 1211]	< 100 nM	100 to 250 nM
C#Cc1cc(C)c(-c2c(C3=CC[C@@H](C(=O)N4CCC[C@H]4COC)CC3)c3c(N)ncnc3n2C)cn1 (single isomer, unassigned) [Example 1212]	< 100 nM	100 to 250 nM
C#Cc1cc(C)c(-c2c(C3=CC[C@@H](C(=O)N4CCC[C@H]4C)CC3)c3c(N)ncnc3n2C)cn1 (single isomer, unassigned) [Example 1219]	< 100 nM	≤ 100 nM
C#Cc1ccc(-c2c(C3=CC[C@@H](C(=O)N4CCC[C@@H]4C#C)CC3)c3c(N)ncnc3n2C)c(C)n1 (single isomer, unassigned) [Example 1229]	< 100 nM	≤ 100 nM
C#Cc1ccc(-c2c(C3=CC[C@@H](C(=O)N4CCC[C@H]4C#C)CC3)c3c(N)ncnc3n2C)c(C)n1 (single isomer, unassigned) [Example 1230]	< 100 nM	≤ 100 nM

Structure (SMILES)	IC50 [1]	IC50 [2]
C#Cc1cc(C)c(-c2c(C3=CC[C@@H](C(=O)N4CCC[C@H]4CO)CC3)c3c(N)ncnc3n2C)cn1 (single isomer, unassigned) [Example 1231]	< 100 nM	≤ 100 nM
C#Cc1ccc(-c2c(C3=CC[C@@H](C(=O)N4CCC[C@H]4C#N)CC3)c3c(N)ncnc3n2C)c(C)n1 (single isomer, unassigned) [Example 1235]	< 100 nM	≤ 100 nM
C#Cc1cc(C)c(-c2c(C3=CC[C@H](C(=O)N4CCCC45COC5)CC3)c3c(N)ncnc3n2C)cn1 (single isomer, unassigned) [Example 1238]	250 to 1000 nM	100 to 250 nM
C#Cc1cc(C)c(-c2c(C3=CC[C@@H](C(=O)N4CCCC45COC5)CC3)c3c(N)ncnc3n2C)cn1 (single isomer, unassigned) [Example 1239]	< 100 nM	≤ 100 nM
C#Cc1cc(C)c(-c2c(C3=CC[C@H](C(=O)N4CCCC4=O)CC3)c3c(N)ncnc3n2C)cn1 (single isomer, unassigned) [Example 1240]	100 to 250 nM	100 to 250 nM
C#Cc1cc(C)c(-c2c(C3=CC[C@@H](C(=O)N4CCCC4=O)CC3)c3c(N)ncnc3n2C)cn1 (single isomer, unassigned) [Example 1241]	< 100 nM	≤ 100 nM
C#Cc1ncc(-c2c(C3=CC[C@@H](C(=O)N4CCCC4)CC3)c3c(N)ncnc3n2C)c(C)c1F (single isomer, unassigned) [Example 1329]	250 to 1000 nM	100 to 250 nM
C#Cc1ncc(-c2c(C3=CC[C@H](C(=O)N4CCCC4)CC3)c3c(N)ncnc3n2C)c(C)c1F (single isomer, unassigned) [Example 1330]	< 100 nM	≤ 100 nM
C#Cc1ncc(-c2c(-c3ccc(C(=O)N4CCC[C@H]4C#C)cc3)c3c(N)ncnc3n2C)c(C)c1F (single isomer, unassigned) [Example 1331]	< 100 nM	≤ 100 nM
C#Cc1ncc(-c2c(-c3ccc(C(=O)N4CCC[C@@H]4C#C)cc3)c3c(N)ncnc3n2C)c(C)c1F (single isomer, unassigned) [Example 1332]	< 100 nM	≤ 100 nM
C=C(C)C(=O)Nc1ccc(-c2c(C3=CC[C@@]4(CC3)Cc3ccc(C)nc3C4=O)c3c(N)ncnc3n2C)cc1 (single isomer, unassigned) [Example 1366]	1000 to 100000 nM	1000 to 100000 nM
C=C(C)C(=O)Nc1ccc(-c2c(C3=CC[C@]4(CC3)Cc3ccc(C)nc3C4=O)c3c(N)ncnc3n2C)cc1 (single isomer, unassigned) [Example 1367]	< 100 nM	≤ 100 nM
C=C(C)C(=O)Nc1cc(C)c(-c2c(C3=CC[C@@H](C(=O)N4CCCC4)CC3)c3c(N)ncnc3n2C)c(C)c1 (single isomer, unassigned) [Example 1484]	1000 to 100000 nM	1000 to 100000 nM
C=C(C)C(=O)Nc1cc(C)c(-c2c(C3=CC[C@H](C(=O)N4CCCC4)CC3)c3c(N)ncnc3n2C)c(C)c1 (single isomer, unassigned) [Example 1486]	1000 to 100000 nM	1000 to 100000 nM
C=CC(=O)N1CCC(c2c(-c3ccc(N4CCCC4=O)nc3)c3c(N)ncnc3n2C)C1 (centres unmarked) [Example 798]	250 to 1000 nM	1000 to 100000 nM
C=CC(=O)N1CCC(c2c(-c3ccc(CC4CCCC4)cc3)c3c(N)ncnc3n2C)C1 (centres unmarked) [Example 799]	250 to 1000 nM	250 to 1000 nM
C=CC(=O)N1CCC(c2c(-c3ccc(N4CCCC4)c(C(F)(F)F)c3)c3c(N)ncnc3n2C)C1 (centres unmarked) [Example 800]	< 100 nM	≤ 100 nM
C=C(C)C(=O)Nc1ccc(-c2sc3ncnc(N)c3c2-c2ccc(Oc3cccc(C)n3)cc2)cc1 [Example 801]	< 100 nM	≤ 100 nM
C=C(C)C(=O)Nc1ccc(-c2oc3ncnc(N)c3c2-c2ccc(Oc3cccc(C)n3)cc2)cc1 [Example 802]	1000 to 100000 nM	1000 to 100000 nM
C=CC(=O)N1CCC(c2c(-c3ccc(N4CCNC4=O)cc3)c3c(N)ncnc3n2C)C1 (centres unmarked) [Example 803]	1000 to 100000 nM	1000 to 100000 nM
C=CC(=O)N1CCC(c2c(-c3ccc(OC4CC4)nc3)c3c(N)ncnc3n2C)C1 (centres unmarked) [Example 804]	100 to 250 nM	1000 to 100000 nM
C=CC(=O)N1CCC(c2c(-c3ccc(N4CCN(C)C4=O)cc3)c3c(N)ncnc3n2C)C1 (centres unmarked) [Example 805]	1000 to 100000 nM	250 to 1000 nM
C=CC(=O)N1C[C@H](c2c(-c3ccc(Oc4cccc(C)n4)cc3)c3c(N)ncnc3n2C)[C@@H](O)C1 [Example 806]	< 100 nM	100 to 250 nM
C=CC(=O)N1C[C@@H](O)[C@@H](c2c(-c3ccc(Oc4cccc(C)n4)cc3)c3c(N)ncnc3n2C)C1 [Example 807]	250 to 1000 nM	250 to 1000 nM
